{"source": "patent US20230079389A1", "about": "“COMPOSITION FOR USE IN PREVENTION OR TREATMENT OF OESOPHAGEAL DISEASES LINKED TO EPITHELIAL BARRIER DEFECTS” (THELIAL B.V., priority 2020, published 2023)", "key": {"[1]": {"system": "Par6", "assay": "theLiTE assay: distribution of GFP-tagged Par6 in live follicular epithelia", "conditions": "for Par6 modulation (distribution of Par6 protein): live follicular epithelia of Drosophila egg chamber, Par6-GFP", "from_the_text": "The present inventors used a unique approach in order to identify compounds which reinforce the TJ system via the control of TJ initiation. Par6 was selected as the biological target; it acts as a regulator of tight junction initiation. Par6 has a polar distribution, with a defined zone of high abundance at one end of the cell. This Par6 distribution is key to the biological function, not just the absolute Par6 protein level.\nStandard tools for RNA and protein level measurement are not adequate to discover compounds which target Par6 and the present inventors devised and implemented an assay where the distribution of Par6 in living tissues can be monitored: Thelial Live Targeted Epithelia (theLiTE™; U.S. Pat. No. 9,416,391).\nThe technology of theLITE™ allows monitoring the distribution of Par6—an intracellular protein that controls tight junction assembly. The assay was performed in live follicular epithelia of the egg chamber of the fruit fly Drosophila. Par6 was tagged with a green fluorescence protein (GFP) and its distribution within the cell was monitored by the GFP signal. […] This protein distribution is key to the biological function, not just the absolute protein level.\nIn theLiTE, the present inventors tested whether compounds modulate the distribution of Par6 protein in live follicular epithelia. In theLiTE more than 20 live egg chambers were exposed to test each compound and monitored for Par6 distribution after a set incubation time; any positive compounds were tested in three separate runs of experiments and over a broad range of concentrations. The full method is disclosed in the US patent document. […] The positive control in FIG. 2, indicated with a “+” sign, is Antimycin A, at a concentration of 40 micromolar. The negative control, indicated with a “−” sign is the solvent medium (Insect cell culture medium plus 10% dimethyl sulfoxide)."}, "[2]": {"system": "subjects suffering from GERD", "assay": "6-weeks treatment of GERD subjects, synergy between active compounds", "type": "in vivo, human", "conditions": "for subjects reporting reduction in severity of GERD, as well as reduced usage of PPIs: 500 mg twice daily oral, 14 patients per group; for effect on GERD (in words): twice daily oral", "procedure": "In a 6-weeks treatment, 50 subjects suffering from GERD receive a twice daily oral dose (1 hour before the morning and the evening meal) with either • Quercetin (500 mg); • Myricetin (500 mg); • Quercetin (500 mg) and Myricetin (500 mg); • Quercetin (500 mg) and Genistein (300 mg); • Myricetin (500 mg) and Berberine (750 mg)."}, "[3]": {"system": "patients with non-erosive Gastro esophageal Reflux Disease (GERD)", "conditions": "cited from earlier work"}}, "note": "Where two headings read alike, the source gives them in different places."}
{"compound": "COc1ccc2cc3[n+](cc2c1OC)CCc1cc2c(cc1-3)OCO2", "note": "[Berberine, 5,6-dihydro-9,10-dimehtoxybenzo[g]-1,3-benzodioxolo[5,6-a]quinolizinium]", "values": [{"measurement": "Par6 modulation (distribution of Par6 protein)", "setting": "[1]", "result": "do not modulate Par6"}]}
{"compound": "O=c1c(-c2ccc(O)cc2)coc2cc(O)cc(O)c12", "note": "[Genistein, 5,7-dihydro-3-(4-hydroxyphenyl)chromen-4-one]", "values": [{"measurement": "Par6 modulation (distribution of Par6 protein)", "setting": "[1]", "result": "do not modulate Par6"}]}
{"compound": "O=c1c(O)c(-c2cc(O)c(O)c(O)c2)oc2cc(O)cc(O)c12", "note": "[Myricetin, 3,5,7-Trihydroxy-2-(3,4,5-trihydroxyphenyl)-4H-1-benzopyran-4-one]", "values": [{"measurement": "subjects reporting reduction in severity of GERD, as well as reduced usage of PPIs", "setting": "[2]", "result": "10 subjects report reduction in severity of GERD,"}, {"measurement": "effect on GERD (in words)", "setting": "[2]", "result": "reduction of GERD severity"}, {"measurement": "Par6 modulation (distribution of Par6 protein)", "setting": "[1]", "result": "potent Par6 modulation"}, {"measurement": "toxicity", "setting": "[1]; screen of over 2000 compounds", "result": "low toxicity"}]}
{"compound": "O=c1c(O)c(-c2ccc(O)c(O)c2)oc2cc(O)cc(O)c12", "note": "[Quercetin, 2-(3,4-dihydroxyphenyl)-3,5,7-trihydroxychromen-4-one]", "values": [{"measurement": "subjects reporting reduction in severity of GERD, as well as reduced usage of PPIs", "setting": "[2]", "result": "12 subjects report reduction in severity of GERD,"}, {"measurement": "effect on GERD (in words)", "setting": "[2]", "result": "reduction of GERD severity"}, {"measurement": "esophageal epithelial barrier function, resistance to injury upon contact with hydrochloric acid", "setting": "[3]; 500 mg orally twice daily (tablet) for 6 weeks, endoscopic biopsies before and after", "result": "increases esophageal epithelial barrier function"}, {"measurement": "heartburn symptom improvement", "setting": "[3]; 14 GERD sufferers, twice 500 mg daily, 6-week period", "result": "no report of consistent effects"}, {"measurement": "toxicity", "setting": "[1]", "result": "low toxicity"}, {"measurement": "Par6 modulation (distribution of Par6 protein)", "setting": "[1]", "result": "potent Par6 modulation"}]}
{"compound": "Antimycin A [reference compound]", "values": [{"measurement": "Par6 modulation (distribution of Par6 protein)", "setting": "[1]", "result": "most potent compound in the test"}, {"measurement": "toxicity", "setting": "[1]; screen of over 2000 compounds", "result": "toxic"}]}
